The target in test [1] is T1, Protein farnesyltransferase (Homo sapiens, UniProt P49354+P49356). Description: Percent inhibition of Ha-Ras protein processing in THAC (Ha-ras-transformed CCL39) cells at 10 uM. The test is classed as functional.
Test [2] addresses T1, Protein farnesyltransferase. Nature of the test: Inhibition of [3H]FPP incorporation into human Ki-Ras by farnesyltransferase. The class given is protein-complex assay.
Test [3] has the same target. Description: Ratio of FTase IC50 values compared to compound 5. The test is classed as protein-complex assay.
Test [4] shares this target. Description: Ratio of FTase IC50 values compared to compound 8. The test is classed as protein-complex assay.
The target is the same in test [5]. Description: Inhibition of [3H]FPP incorporation into human Ha-Ras by farnesyltransferase. The class given is protein-complex assay.

pIC50: −log10 of the molar value. Square brackets hold non-standard residues; d marks the D form. Peptide text beside a SMILES is read from it. Tic = O=C(O)[C@@H]1Cc2ccccc2CN1; NMeM = CN[C@@H](CCSC)C(=O)O; NMeV = CN[C@H](C(=O)O)C(C)C; Nle = CCCC[C@H](N)C(=O)O

By inhibition is commonly meant the percentage by which the read-out fell short of the control. A low value points to a weak effect. The term pIC50 denotes −log10 of the IC50, conventionally taken in molar units. Higher therefore signals a small IC50.

`CSCC[C@H](NC(=O)[C@@H]1Cc2ccccc2CN1C(=O)[C@H](C(C)C)N(C)C(=O)[C@@H](N)CS)C(=O)O` (H-C[NMeV][Tic]M-OH) came in with an inhibition in test [1] of 0%. `CSCC[C@H](NC(=O)c1cccc2cc(NC[C@@H](N)CS)ccc12)C(=O)O` gave a pIC50 in test [2] of 7.76. For the same compound, in test [1], the inhibition is 10%.

Compound `COC(=O)[C@H](CCSC)NC(=O)c1cccc2cc(NC[C@@H](N)CS)ccc12` had a pIC50 in test [2] of 6.30. In test [1], the inhibition is over 50%.

Regarding `CSCC[C@H](NCc1cccc2c(NC[C@@H](N)CS)cccc12)C(=O)O`, in test [3], the Ratio is 54. `CSCC[C@H](/N=C(\S)[C@H](Cc1ccccc1)NC(=O)[C@@H](NC(=O)[C@@H](N)CS)C(C)C)C(=O)O`: the Ratio in test [4] worked out at 0.5. Compound `COC(=O)[C@H](CCSC)NC(=O)c1cccc2c(NC[C@@H](N)CS)cccc12` had an inhibition in test [1] of 20%. Further, the Ratio in test [3] was found to be 58. In addition, the pIC50 in test [5] was 6.49. For `CSCC[C@H](NC[C@H](Cc1ccccc1)NC(=O)[C@@H](NC(=O)[C@@H](N)CS)C(C)C)C(=O)O`, the Ratio in test [4] came out at 60. With `CCCC[C@H](NC(=O)[C@H](Cc1ccccc1)NC(=O)[C@@H](NC(=O)[C@@H](N)CS)C(C)C)C(=O)O` (H-CVF[Nle]-OH), in test [4], the Ratio is 26. Besides, the negative-log IC50 (pIC50) in test [5] is 6.02.

For the compound `CSCC[C@H](/N=C(\S)c1cccc2c(NC[C@@H](N)CS)cccc12)C(=O)O`, the Ratio in test [3] is 0.9. Consider `CSCC[C@H](NC(=O)c1cccc2c(NC(=O)[C@@H](N)CS)cccc12)C(=O)O`, for which, in test [1], the inhibition came to 0%.

As to `COC(=O)[C@H](CCSC)NC(=O)[C@H](Cc1ccccc1)NC(=O)[C@@H](NC(=O)[C@@H](N)CS)C(C)C` (H-CVFM-OMe), the Ratio in test [4] was 92. The same compound showed a pIC50 in test [5] of 5.47. For the compound `CSCC[C@H](NC(=S)[C@H](Cc1ccccc1)NC(=O)[C@@H](NC(=O)[C@@H](N)CS)C(C)C)C(=O)O`, the negative-log IC50 (pIC50) in test [5] is 7.77. Consider `CSCC[C@@H](C(=O)O)N(C)C(=O)c1cccc2c(NC[C@@H](N)CS)cccc12`, for which the Ratio in test [3] was found to be 37.5. For the same compound, in test [5], the pIC50 was 6.68. In the same order, the values of `CCCC[C@H](NC(=O)c1cccc2c(NC[C@@H](N)CS)cccc12)C(=O)O` are 8 and 7.36.

With `CSCC[C@H](NC(=O)c1cccc2c(NC[C@@H](N)CS)cccc12)C(=O)O`, in test [1], the inhibition was 0%. Moreover, the Ratio in test [3] amounted to 1. With `CSCC[C@H](NC(=O)c1cccc2cc(NC(=O)[C@@H](N)CS)ccc12)C(=O)O`, the values for the negative logarithm of the IC50 (pIC50) in test [2] and in test [5] were 5.90 and 7.22, respectively. Take `CSCC[C@@H](C(=O)O)N(C)C(=O)[C@H](Cc1ccccc1)NC(=O)[C@@H](NC(=O)[C@@H](N)CS)C(C)C` (H-CVF[NMeM]-OH): the Ratio in test [4] worked out at 38. This compound had a pIC50 in test [5] of 5.85. `CSCC[C@H](NC(=S)c1cccc2c(NC[C@@H](N)CS)cccc12)C(=O)O` gave a pIC50 in test [5] of 8.32.

For the origin of these results see ChEMBL document CHEMBL1130050, “Novel conformationally extended naphthalene-based inhibitors of farnesyltransferase” (J Med Chem, 1997).
